1 molecule from patent US12082579B2, “Compositions and methods to manage hemiptera” (ISCA Technologies, Inc., priority 2021, dated 2024) can be followed below.

For the assay, the system named is Diceraus melacanthus. As to the kind of experiment: Field study in a wheat harvest area: attraction of stink bugs by pear ester versus regular pheromone, 24 hour period, six blocks. The class given is in vivo. Particulars: for attraction rate (stink bugs attracted per treatment): wheat harvest area. As to the method: A study was conducted to evaluate the effectiveness of pear ester versus regular pheromone to attract sting bugs. In particular, a study was conducted in a wheat harvest area in an attempt to attract the stink bug, Diceraus melacanthus.

On to `CCCCC/C=C\C=C\C(=O)OCC` [Pear Ester, Ethyl-2E,4Z-decadienoate], for which the “attraction rate compared with regular pheromone” value (24 hour period, six blocks, result in words) is recorded as “at least, the same as the regular pheromone”. Also, the “attraction rate (stink bugs attracted per treatment)” value runs as follows: (Block 1, 24 hour period) 3; (Block 2, 24 hour period) 1; (Block 3, 24 hour period) 0; (Block 4, 24 hour period) 0; (Block 5, 24 hour period) 3; (Block 6, 24 hour period) 1. Moreover, for the setting “Mean of six blocks, 24 hour period”, the “attraction rate, Mean” value was found to be 1.33. Further, under “Sum of six blocks, 24 hour period”, the “attraction rate, Sum” value is 8.00. Moreover, the “attractant effect on stink bugs” value (stink bugs, including Diceraus melacanthus, Nezara viridula, Piezodorus guildinii, Tibraca limbativentris, Chinavia spp, Edessa meditabunda, Euschistus heros, result in words) is on record as “clearly has an attractant effect”.
